In patent US6500425B1, “Inhibiting plant pathogens with an antagonistic microorganism(s)” (The United States of America as represented by the …, priority 1988, dated 2002):

How the values were obtained:
Assay type in all cases: in vivo
Botrytis cinerea [1] = test: Botrytis cinerea infection of wounded apples, inorganic salts with or without NRRL Y-18314 (Example XI); conditions: for Percent Infection, Salt Alone (No NRRL Y-18314): salt 2 grams/100 ml (FeSO4 5 millimolar), 10 days after inoculation, mean (standard error)
Description: Golden delicious apples were artificially wounded to a depth of 3 mm using a needle. Each of a first portion of the apples was treated with 50 microliter aliquots of an aqueous solution consisting of NRRL Y-18314 in sterile distilled water at a concentration of 10^7 CEU/ml with each of the salts listed in Table VIII at a concentration of 2 grams/100 ml (with the exception of FeSO4 which was utilized at a 5 millimolar concentration). A second portion of the apples was treated with a 50 microliter aqueous solution of the salts listed in Table VIII at a concentration of 2 grams/100 ml (with the exception of FeSO4 which was utilized in a concentration of 5 millimolar). Also a control was run using only sterile distilled water. Two hours after application of the above solutions, each of the apples was challenged with 20 microliters of a 10^5 spore/ml suspension of Botrytis cinerea. The average percent fruit infection of four trials (8 to 10 replicates per trial) was measured 10 days after inoculation with the Botrytis cinerea.
Values in parentheses are standard errors of the mean.

Botrytis cinerea [2] = test: Botrytis cinerea infection of wounded apples, yeasts with or without CaCl2 (Example XII); conditions: CaCl2 2 grams/100 ml, no yeast, seven days, mean (standard error)
Description: Golden Delicious apples were wounded in accordance with the previous example. […] Two hours later the apples were challenged with 20 microliters of a suspension of 10^4 spores/milliliters of Botrytis cinerea. Seven days after inoculation percent infection was observed. […] Values in parentheses are standard errors of the mean.

Penicillium expansum = Penicillium expansum lesion diameter on wounded apples (Example XIII); conditions: CaCl2 2 gram/100 ml alone (yeast 0), seven days
Description: Golden delicious apples were artificially wounded in accordance with Example XI.
The entries of Table X are the average of 5 replicates per treatment.

Penicillium digitatum = Penicillium digitatum fruit rot of wounded grapefruit, CaCl2 and yeast concentrations (Example XIV)
Description: Grapefruit was wounded as in Example I. The wounded grapefruit were then treated with 50 microliter aliquots of the constituents identified in Tables XI and XII in sterile distilled water. Two hours later the […] were challenged with 20 microliters of a 10^4 spore/milliliter suspension of Penicillium digitatum. The grapefruit were incubated for 5 days at 24° C. before observations were taken.

[Cl][Mn][Cl] [MnCl2]
Percent Infection, Salt Alone (No NRRL Y-18314) (Botrytis cinerea [1]): 100.0 (±0.0) %

[Cl-].[Na+] [NaCl]
Percent Infection, Salt Alone (No NRRL Y-18314) (Botrytis cinerea [1]): 100.0 (±0.0) %

O=S(=O)([O-])[O-].[Fe+2] [FeSO4]
Percent Infection, Salt Alone (No NRRL Y-18314) (Botrytis cinerea [1]): 87.5 (±12.5) %

[Ca+2].[Cl-].[Cl-] [CaCl2, calcium chloride]
Average Percent Infection (Botrytis cinerea [2]): 100.0 (±0.0) %
Average Lesion Diameter (Penicillium expansum; 10^3 spores/ml): 40.4 mm
Average Lesion Diameter (Penicillium expansum; 10^4 spores/ml): 45.2 mm
Average Lesion Diameter (Penicillium expansum; 10^5 spores/ml): 47.0 mm
Average Percent Fruit Rot (Penicillium digitatum; CaCl2 1% alone (yeast 0), series of Table XI): 39.0%
Average Percent Fruit Rot (Penicillium digitatum; CaCl2 1% alone (yeast 0), series of Table XII): 63.0%
Average Percent Fruit Rot (Penicillium digitatum; CaCl2 2% alone (yeast 0), series of Table XI): 22.8%
Average Percent Fruit Rot (Penicillium digitatum; CaCl2 2% alone (yeast 0), series of Table XII): 33.0%
Percent Infection, Salt Alone (No NRRL Y-18314) (Botrytis cinerea [1]): 95.0 (±5.0) %
infection reduction when used alone (Botrytis cinerea [1]; used alone, 10 days): approximately 5%

[Cl-].[Cl-].[Mg+2] [MgCl2]
Percent Infection, Salt Alone (No NRRL Y-18314) (Botrytis cinerea [1]): 100.0 (±0.0) %

[Cl-].[K+] [KCl]
Percent Infection, Salt Alone (No NRRL Y-18314) (Botrytis cinerea [1]): 100.0 (±0.0) %
